Data: patent US9034352B2, “Microbicide combinations containing silver” (Rohm and Haas Company, priority 2006, dated 2015)
Like-named read-outs stand apart in the source and are kept apart here.

Assays:
Test in all cases: Synergy test, high resolution MIC microtiter plate assay
Type in all cases: cell-based
[1] = test system: Samonella choleraesuis (S. choleraesuis—ATCC #10708); conditions: Salmonella enterica, read-out: MIC of component acting alone (end point)
Text: (§1) One measure of synergism is the industrially accepted method described by Kull, F. C.; Eisman, P. C.; Sylwestrowicz, H. D. and Mayer, R. L., in Applied Microbiology 9:538-541 (1961), using the ratio determined by the formula: Ca/CA+Cb/CB=Synergy Index (“SI”) wherein:
(§2) CA=concentration of compound A (first component) in ppm, acting alone, which produced an end point (MIC of Compound A).
(§3) Ca=concentration of compound A in ppm, in the mixture, which produced an end point.
(§4) CB=concentration of compound B (second component) in ppm, acting alone, which produced an end point (MIC of Compound B).
(§5) Cb=concentration of compound B in ppm, in the mixture, which produced an end point.
(§6) When the sum of Ca/CA and Cb/CB is greater than one, antagonism is indicated. […] The lower the SI, the greater the synergy shown by that particular mixture. The minimum inhibitory concentration (MIC) of an antimicrobial compound is the lowest concentration tested under a specific set of conditions that prevents the growth of added microorganisms.
(§7) Synergy tests were conducted using standard microtiter plate assays with media designed for optimal growth of the test microorganism. Soybean Casein Digest Broth (Tryptic Soy Broth, TSB medium) or minimal salt medium supplemented with 0.2% glucose and 0.1% yeast extract (M9GY medium) was used for testing bacteria; Potato Dextrose Broth (PDB medium) was used for testing yeast and mold. In this method, a wide range of combinations of microbicides was tested by conducting high resolution MIC assays in the presence of various concentrations of the biocides. High resolution MICs were determined by adding varying amounts of microbicide to one column of a microtitre plate and doing subsequent ten-fold dilutions using an automated liquid handling system.
The synergy of the combinations of the present invention was determined against four bacteria, gram positive Staphylococcus aureus (S. aureus—ATCC #6538) and gram negative Pseudomonas aeruginosa (P. aeruginosa—ATCC #15442), Samonella choleraesuis (S. choleraesuis—ATCC #10708) and Esherichia coli (E. coli—ATCC #8739), a yeast, Candida albicans (C. albicans—ATCC 10231), and a mold, Aspergillus niger (A. niger—ATCC 16404). The bacteria were used at a concentration of about 1-6×10^6 bacteria per mL and the yeast and mold at 1-5×10^5 fungi per mL. These microorganisms are representative of natural contaminants in many consumer and industrial applications. […] (yeast and mold) or 30° C. (bacteria).
(§8) The end point values in the following examples for the silver-polymer complex are reported on an active silver ion basis.

[2] = test system: Esherichia coli (E. coli—ATCC #8739); conditions: Escherichia coli, Ag-polymer on active silver ion basis, read-out: MIC of component acting alone (end point)
Text: as §1, §2, §3, §4, §5, §6, §7
(§9) […]. The bacteria were used at a concentration of about 1-6×10^6 bacteria per mL and the yeast and mold at 1-5×10^5 fungi per mL. These microorganisms are representative of natural contaminants in many consumer and industrial applications. […] (yeast and mold) or 30° C. (bacteria).
as §8

[3] = test system: Candida albicans (C. albicans—ATCC 10231); conditions: Candida albicans, ATCC10231, C. albicans, Ag-polymer on active silver ion basis, read-out: MIC of component acting alone (end point)
Text: as §1, §2, §3, §4, §5, §6, §7, §9, §8

[4] = test system: Pseudomonas aeruginosa (P. aeruginosa—ATCC #15442); conditions: Pseudomonas aeruginosa, ATCC15442, P. aeruginosa, Ag-polymer on active silver ion basis, read-out: MIC of component acting alone (end point)
Text: as §1, §2, §3, §4, §5, §6, §7
(§10) The bacteria were used at a concentration of about 1-6×10^6 bacteria per mL and the yeast and mold at 1-5×10^5 fungi per mL. These microorganisms are representative of natural contaminants in many consumer and industrial applications. […] (yeast and mold) or 30° C. (bacteria).

[5] = test system: Aspergillus niger (A. niger—ATCC 16404); conditions: Aspergillus niger, A. niger, Ag-polymer on active silver ion basis, read-out: MIC of component acting alone (end point)
Text: as §1, §2, §3, §4, §5, §6, §7, §10

[6] = test system: Staphylococcus aureus (S. aureus—ATCC #6538); conditions: Staphylococcus aureus, ATCC6538, S. aureus, Ag-polymer on active silver ion basis, read-out: MIC of component acting alone (end point)
Text: as §1, §2, §3, §4, §5, §6, §7, §10

[7] = ATCC16404, 168 h, contact time 7 days

| Compound | MIC ([1]; S. choleraesuis, contact time 24 hour, Ag-polymer on active silver ion basis) | MIC ([1]; S. choleraesuis, contact time 48 hour, Ag-polymer on active silver ion basis) | MIC ([2]; ATCC8739, contact time 24 hour) | MIC ([2]; ATCC8739, contact time 48 hour) | MIC ([3]; contact time 24 hour) | MIC ([3]; contact time 48 hour) | MIC ([4]; contact time 24 hour) | MIC ([5]; ATCC16404, 72 h, contact time 3 days) | MIC [5, 7] | MIC ([6]; contact time 24 hour) | MIC ([6]; contact time 48 hour) | MIC [1] | MIC ([4]; contact time 48 hour) |
| --- | --- | --- | --- | --- | --- | --- | --- | --- | --- | --- | --- | --- | --- |
| CCCCCCCCn1sccc1=O [OIT, 2-n-octyl-4-isothiazolin-3-one, reference compound] | 361 µg/mL | 361 µg/mL | 294 µg/mL | 294 µg/mL | 0.81 µg/mL | 0.99 µg/mL | 444 µg/mL | 3.9 µg/mL | 5.76 µg/mL | 72.8 µg/mL | 72.8 µg/mL |  |  |
| CCCCCCCCn1sc(Cl)c(Cl)c1=O [DCOIT, 4,5-dichloro-2-n-octyl-4-isothiazolin-3-one, reference compound] |  |  | 0.29 µg/mL | 0.43 µg/mL |  | 0.15 µg/mL | 1.5 µg/mL |  | 2 µg/mL | 0.29 µg/mL | 0.29 µg/mL | 1.5 µg/mL | 2.9 µg/mL |
